Test results reported in PMC4761891, “CD36 is a co-receptor for hepatitis C virus E1 protein attachment” (Scientific Reports, 2016).
Read-outs that look alike come from different tables or passages of the source.

Key:
HCV particle = test: Interaction between HCV and compounds (direct inactivation of HCV particles); assay type: cell-based, hepatitis C virus; settings: 1 hr room temperature, Huh7.5, 72 hrs; for HCV inhibitory activity, Group 1 (treated HCV stock, no ultracentrifugation): SSO 10 μM or VX-950 0.5 μM, P < 0.01
CD36 = target: T1, CD36 (Homo sapiens, UniProt P16671); test: BIAcore surface plasmon resonance binding to CD36-HA; settings: immobilised CD36-HA; SSO 50, 100, 200, 500 μM
T1 construct: made in house; host or cells: 293T/17 cells

[1] = tested on: HCV subgenomic replicon I 377-3′del.S in GS4.3 cells; test: HCV subgenomic replicon replication in GS4.3 cells; assay type: cell-based, hepatitis C virus; settings: 72 hrs incubation, intracellular RNA; VX-950 at 1.0 μM
Protocol: Huh7.5 cells infected with HCV (45 IU/cell), or GS4.3 replicon cells were treated with different concentration of compounds. After 72 hrs, intracellular RNA was extracted with RNeasy Mini Kit; total intracellular proteins were extracted with PER. HCV RNA and proteins were analyzed with qRT-PCR and WB, respectively. Compound cytotoxicity in Huh7.5 cells or GS4.3 replicon cells were evaluated at 72 hrs with the tetrazolium (MTT, Amresco) assay.

SR-BI = target: T2, SR-BI (Homo sapiens, UniProt Q8WTV0); test: BIAcore surface plasmon resonance binding to SR-BI-HA; settings: immobilised SR-BI-HA
T2 construct: made in house; host or cells: 293T/17 cells
T2 sequence (Q8WTV0 1-509 isoform Q8WTV0-2): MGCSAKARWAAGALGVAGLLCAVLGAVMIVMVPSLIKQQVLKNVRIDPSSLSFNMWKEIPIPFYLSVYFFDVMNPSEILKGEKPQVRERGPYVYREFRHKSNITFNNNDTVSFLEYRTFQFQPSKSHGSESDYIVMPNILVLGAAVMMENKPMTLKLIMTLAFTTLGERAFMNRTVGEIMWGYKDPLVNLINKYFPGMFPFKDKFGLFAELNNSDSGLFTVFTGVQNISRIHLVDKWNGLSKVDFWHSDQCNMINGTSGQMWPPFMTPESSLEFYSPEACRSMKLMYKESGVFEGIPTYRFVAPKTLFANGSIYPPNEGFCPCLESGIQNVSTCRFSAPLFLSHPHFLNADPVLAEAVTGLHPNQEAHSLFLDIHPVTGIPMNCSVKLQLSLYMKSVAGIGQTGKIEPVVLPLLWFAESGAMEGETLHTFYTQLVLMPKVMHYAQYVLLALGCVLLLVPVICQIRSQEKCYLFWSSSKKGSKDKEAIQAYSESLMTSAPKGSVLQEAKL
Protocol: The 293T/17 cells were transfected with CD36-HA or SR-BI-HA plasmid using HD transfection reagent. At 48 hrs post transfection, cells were harvested and protein CD36-HA or SR-BI-HA was purified with Pierce Anti-HA Agarose (Thermo Scientific) and then desalinated with Zeba Spin Desaling Columns (Thermo Scientific). The concentration of purified proteins was quantified with Pierce BCA Protein Assay Kit (Thermo Scientific). Then, surface plasmon resonance experiments were performed on a BIAcore biosensor system (BIAcore T100). In brief, the carboxymethylated surface of series S sensor chip CM5 (GE Healthcare Bio-Sciences) was first activated with a mixture of N-hydroxysuccinimide (NHS) and 1-ethyl-3-(3- dimethylaminopropyl) carbodiimide hydro-chloride (EDC) (BIAcore AB). Subsequently, 200 μL of purified CD36-HA or SR-BI-HA at a concentration of 80 μg/mL was injected into the flow cell (FC2) for immobilization on the sensor surface. […] Compound VX-950 was used as negative control. Data were evaluated using the software BIAcore T100 Evaluation (BIAcore AB).

HCV [2] = test: Time-of-addition assay; assay type: cell-based, hepatitis C virus; settings: 10 nM bafilomycin A1, Huh7.5, HCV 300 IU/cell
Protocol: Huh7.5 cells were infected with HCV (300 IU/cell) and incubated at 4 °C for 2 hrs, the cells were then washed with cold PBS and shifted to 37 °C (set as 0 hr time point) to initiate synchronous infection. […] Intracellular HCV RNA was detected after 72 hrs incubation. Inhibitory ratio was calculated as % relative to infectious control (0%). Fitted lines represent sigmoidal time-dependent curves.

KM mice = test: Safety of SSO in vivo (single oral dose, KM mice); settings: single oral dose up to 1000 mg/kg, day 7
From the text: KM mice at a weight of 21.0 ± 1.0 g were from Laboratory Animal Center, Academy of Military Medical Sciences, Beijing, China. The mice were randomly divided into four groups with 10 mice in each (♂ × 5, ♀ × 5). […] Body weight as well as survival was monitored. Seven days later, blood samples were taken for liver and kidney function examination.

HCV [3] = test: Influence of CD36 level on the anti-HCV activity of SSO; assay type: cell-based, hepatitis C virus; settings: 5 μM SSO for 2 hrs, HCV 150 IU/cell, RNA in 96 hrs, P < 0.01
Protocol: Intracellular HCV RNA was analyzed with qRT-PCR in 96 hrs.

HCV [4] = test: Inhibition of HCV entry (treatment before, during or after infection); assay type: cell-based, hepatitis C virus; settings: Huh7.5 cells
From the text: Then, the cells were washed and cultured with fresh medium. Intracellular HCV RNA and proteins were detected in 72 hrs.

hepatitis B virus (HBV) = test: Activity against HBV in HepG2.2.15 cells; assay type: cell-based
[5] = tested on: Influenza virus BV/Shenzhen/155/2005; test: microbe, parasite or virus in culture; settings: unidentified influenza virus, MDCK
[6] = Cytotoxicity in MDCK cells; assay type: cell-based; settings: dog, Influenza virus A/Tianjin-Jinnan/15/2009 test
MDCK cells = test: Cytotoxicity in MDCK cells; assay type: cell-based; settings: Influenza virus BV/Shenzhen/155/2005 test
HCV [7] = test: Anti-HCV activity in HCV-infected Huh7.5 cells (intracellular HCV RNA, qRT-PCR); assay type: cell-based, hepatitis C virus; settings: for EC50: Hepatitis C virus, read-out: half maximal effective concentration (EC50) against HCV at RNA level; for selective index (SI): Huh7.5 cells, cytotoxicity by MTT assay vs anti-HCV EC50, 72 hrs
[8] = Cytotoxicity in Vero cells; assay type: cell-based; settings: African green monkey
[9] = tested on: Coxsackie B virus (CoxV-B1); test: microbe, parasite or virus in culture; settings: Vero
[10] = tested on: hepatitis B virus, influenza virus, herpes simplex virus and Coxsackie virus; test: Activity of CD36 inhibitors against other viruses; assay type: cell-based; settings: HepG2.2.15, MDCK and Vero cell cultures
[11] = tested on: Influenza virus A/Tianjin-Jinnan/15/2009; test: microbe, parasite or virus in culture; settings: unidentified influenza virus, MDCK
[12] = tested on: herpes simplex virus type 1 (HSV-1); test: Activity against HSV-1 in Vero cells; assay type: cell-based; settings: Human alphaherpesvirus 1; HSV-1, Vero
[13] = Cytotoxicity in HepG2.2.15 cells; assay type: cell-based; settings: human, HBV test

T1 sequence (P16671 whole entry): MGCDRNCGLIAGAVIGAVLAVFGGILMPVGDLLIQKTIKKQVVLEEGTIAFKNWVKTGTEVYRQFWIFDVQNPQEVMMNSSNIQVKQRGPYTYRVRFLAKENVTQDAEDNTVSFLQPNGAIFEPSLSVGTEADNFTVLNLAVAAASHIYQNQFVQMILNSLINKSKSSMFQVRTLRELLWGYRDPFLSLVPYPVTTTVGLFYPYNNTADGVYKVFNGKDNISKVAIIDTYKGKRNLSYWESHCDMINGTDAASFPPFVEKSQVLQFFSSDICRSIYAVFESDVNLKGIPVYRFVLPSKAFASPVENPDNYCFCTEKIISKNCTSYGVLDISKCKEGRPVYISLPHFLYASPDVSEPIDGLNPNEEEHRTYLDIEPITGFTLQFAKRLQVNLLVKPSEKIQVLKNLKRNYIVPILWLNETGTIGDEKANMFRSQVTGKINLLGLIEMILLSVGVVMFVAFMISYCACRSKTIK

CCC[C@H](NC(=O)[C@@H]1[C@H]2CCC[C@H]2CN1C(=O)[C@@H](NC(=O)[C@@H](NC(=O)c1cnccn1)C1CCCCC1)C(C)(C)C)C(=O)C(=O)NC1CC1 [VX-950, telaprevir]
HCV inhibitory activity, Group 1 (treated HCV stock, no ultracentrifugation) (HCV particle): showed HCV inhibitory activity
direct binding to CD36 (BIAcore) (CD36): did not bind onto CD36
replication of the HCV replicon in GS4.3 cells [1]: strong inhibitory effect
direct binding to SR-BI (BIAcore) (SR-BI): no binding on SR-BI

CO/C1=C\C(C)=C\[C@@H](C)[C@@H](O)[C@@H](C)C/C(C)=C/C=C/[C@H](OC)[C@@H]([C@@H](C)[C@@H](O)[C@H](C)[C@@]2(O)C[C@@H](O)[C@H](C)[C@@H](C(C)C)O2)OC1=O [bafilomycin A1]
time HCV remained sensitive to the inhibitor after shift to 37 °C (HCV [2]): 3 h

CCCCCCCC/C=C\CCCCCCCC(=O)ON1C(=O)CC(S(=O)(=O)O)C1=O (centres unmarked) [SSO, sulfo-N-succinimidyl oleate]
HCV inhibitory activity, Group 1 (treated HCV stock, no ultracentrifugation) (HCV particle): showed HCV inhibitory activity
infectivity of treated virus, Group 2 (after ultracentrifugation) (HCV particle; SSO 10 μM, ultracentrifuged, P > 0.05): infectivity equal to that of untreated control
liver and kidney function: blood GOT, GPT, BUN and CRE (KM mice): abnormality was not detected
anti-HCV activity of SSO in cells transfected with CD36 plasmid (HCV [3]): decreased
anti-HCV activity of SSO in cells transfected with siRNA for CD36 (HCV [3]): increased
HCV replication, treatment after infection (HCV [4]; 2 hrs treatment after infection, detected in 72 hrs, P > 0.05): no inhibitory effect
HCV replication, treatment before and during HCV infection (HCV [4]; 2 hrs treatment, HCV RNA and proteins in 72 hrs, P < 0.01): strongly inhibit HCV replication
EC50 (hepatitis B virus (HBV)): > 100 µM
EC50 [5]: 200 µM
CC50 [6]: > 200 µM
CC50 (MDCK cells): > 200 µM
EC50 (HCV [7]; Huh7.5, 72 h): 0.31 ± 0.09 µM
anti-HCV efficacy in combination with IFN-α (HCV [7]; SSO 1.0 μM + IFN-α 1.0 U/mL, HCV-infected Huh7.5 cells, 72 hrs, P < 0.05 vs IFN-α alone): enhanced anti-HCV efficacy
anti-HCV efficacy in combination with telaprevir (VX-950) (HCV [7]; SSO 1.0 μM + VX-950 0.1 μM, HCV-infected Huh7.5 cells, 72 hrs, P < 0.05 vs telaprevir alone): enhanced anti-HCV efficacy
CC50 ([8]; CoxV-B1 test): 111 µM
CC50 ([8]; HSV-1 test): > 200 µM
EC50 [9]: > 66.7 µM
replication of the HCV replicon in GS4.3 cells [1]: did not inhibit the replication
inhibitory activity on hepatitis B virus, influenza virus, herpes simplex virus and Coxsackie virus [10]: no inhibitory activity
EC50 [11]: 79 µM
EC50 [12]: > 200 µM
direct binding to SR-BI (BIAcore) (SR-BI): no binding on SR-BI
CC50 [13]: > 100 µM

COc1cc(O)c(/C=N/NC(=O)c2cc3ccccc3s2)c(OC)c1 [AP5055]
EC50 (HCV [7]; Huh7.5 cells infected with HCV (45 IU/cell), 72 hrs, intracellular HCV RNA): 0.39 ± 0.16 µM
selective index (SI) (HCV [7]): 25

COc1ccc2cc[n+](CCc3ccccc3)cc2c1O [W-9]
EC50 (HCV [7]; Huh7.5, 72 h): 6.61 ± 3.18 µM
selective index (SI) (HCV [7]): 20
